Data as given in patent US7531663B2, “3-guanidinocarbonyl-1-heteroaryl-indole derivatives, preparation process, their use as medicaments, and pharmaceutical compositions comprising them” (sanofi-aventis Deutschland GmbH, priority 2003, dated 2009).
Counter-ions that a name gives are not always drawn.

What was measured:
[1] = target: T1, NHE1 (Homo sapiens, UniProt P19634); experiment: NHE inhibition FLIPR test (intracellular pH recovery, BCECF) in transfected LAP-1 cell lines; type: cell-based; details: transfected LAP-1 cell line expressing NHE1 subtype, BCECF fluorescence, pHi recovery after acidification
T1 construct: expressed in transfected cells; host or cells: LAP-1 (parental line without endogenous NHE activity), G418-selected transfectants
T1 sequence (P19634 whole entry): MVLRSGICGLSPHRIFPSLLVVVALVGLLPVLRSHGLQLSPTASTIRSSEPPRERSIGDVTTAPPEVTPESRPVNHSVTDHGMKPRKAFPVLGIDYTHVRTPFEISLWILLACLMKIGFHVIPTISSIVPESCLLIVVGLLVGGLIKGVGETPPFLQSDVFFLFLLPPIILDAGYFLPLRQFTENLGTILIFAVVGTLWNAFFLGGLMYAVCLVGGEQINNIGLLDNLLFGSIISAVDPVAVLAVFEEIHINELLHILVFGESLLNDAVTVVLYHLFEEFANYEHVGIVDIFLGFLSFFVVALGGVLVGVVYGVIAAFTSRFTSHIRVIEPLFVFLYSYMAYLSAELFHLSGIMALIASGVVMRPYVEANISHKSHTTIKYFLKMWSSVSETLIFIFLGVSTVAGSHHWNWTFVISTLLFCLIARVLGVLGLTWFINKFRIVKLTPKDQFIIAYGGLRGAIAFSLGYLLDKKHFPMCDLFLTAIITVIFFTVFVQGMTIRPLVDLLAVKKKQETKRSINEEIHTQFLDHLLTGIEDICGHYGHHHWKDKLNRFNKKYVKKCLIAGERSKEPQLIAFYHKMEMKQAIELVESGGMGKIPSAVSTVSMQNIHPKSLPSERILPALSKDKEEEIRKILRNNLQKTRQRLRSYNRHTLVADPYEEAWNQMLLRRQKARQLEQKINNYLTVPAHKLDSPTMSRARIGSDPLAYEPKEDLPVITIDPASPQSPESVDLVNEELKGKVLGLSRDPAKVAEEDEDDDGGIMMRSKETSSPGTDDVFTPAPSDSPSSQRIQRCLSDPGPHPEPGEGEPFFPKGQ
Experimental: The NHE inhibitory activities (IC50 values) of the compounds according to the invention were determined by a FLIPR test.
The test is performed in the FLIPR (Fluorescent Imaging Plate Reader) equipped with clear-bottomed and black-walled 96-well microtitration plates.
The growth medium for the transfected cells (Iscove+10% foetal calf serum) also comprises G418 as selection antibiotic to ensure the presence of transfected sequences.
The actual test begins by eliminating the growth medium and adding 100 μl of loading buffer per well (5 μM of BCECF-AM [2′,7′-bis(2-carboxyethyl)-5-(6)-carboxyfluoresceine acetoxymethyl ester] in 20 mM of NH4Cl 115 mM of choline chloride, 1 mM of CaCl2, 5 mM of KCl, 20 mM of HEPES and 5 mM of glucose; pH 7.4 (adjusted with KOH). The cells are then incubated for 20 minutes at 37° C. This incubation results in the loading of the fluorescent dye into the cells, the fluorescence intensity of which depends on the pHi, and on the NH4Cl, which results in a slight basification of the cells.
The precursor BCECF-AM, a non-fluorescent dye, is, as an ester, capable of crossing the membrane. The actual dye, which is incapable of crossing the membrane, is released inside the cell by esterases.
After this 20-minute incubation, the loading buffer, which comprises NH4Cl and free BCECF-AM, is removed by washing three times in the cell washing device (Tecan Columbus), each wash being performed with 400 μl of washing buffer (133.8 mM of choline chloride, 4.7 mM of KCl, 1.25 mM of MgCl2, 1.25 mM of CaCl2, 0.97 mM of K2HPO4, 0.23 mM of KH2PO4, 5 mM of HEPES and 5 mM of glucose; pH 7.4 (adjusted with KOH)). The residual volume remaining in the wells is 90 μl (possibly between 50 and 125 μl). This washing step removes the free BCECF-AM and results in an intracellular acidification (pHi of 6.3-6.4) due to the removal of the external ammonium ions.
As the equilibrium of the intracellular ammonium with the aqueous ammonia and the protons, by removal of the extracellular ammonium and by the subsequent immediate crossing of the aqueous ammonia across the cell membrane, is disrupted, the washing process results in intracellular protons remaining, which is the cause of the intracellular acidification. This acidification can result finally in the death of the cells if it lasts long enough. It is important here for the washing buffer to be free of sodium (<1 mM), otherwise the extracellular sodium ions would result in an immediate increase in the pHi on account of the activity of the cloned NHE isoforms. It is also important for all the buffers used (loading buffer, washing buffer and regeneration buffer) not to contain any HCO3-ions, otherwise the presence of bicarbonate would result in the activation of bicarbonate-dependent systems that disrupt the pHi regulation, which systems are contained in the LAP-1 parental cell line.
The microtiter plates containing acidified cells are then transferred (up to 20 minutes after the acidification) to the FLIPR. In the FLIPR, the intracellular fluorescent dye is activated with light of a wavelength of 488 nm, which is generated by an argon laser, and the measuring parameters (laser power, illumination time and diaphragm of the […] camera integrated into the FLIPR) are chosen such that the average value of the fluorescent signal per well is between 30,000 and 35,000 relative fluorescence units.
The actual measurement in the FLIPR starts with a photograph being taken by the CCD camera every two seconds under software control. After 10 seconds, the increase in the intracellular pH is initiated by adding 90 μl of regeneration buffer (133.8 mM of NaCl, 4.7 mM of KCl, 1.25 mM of MgCl2, 1.25 mM of CaCl2, 0.97 mM of K2HPO4, 0.23 mM of KH2PO4, 10 mM of HEPES and 5 mM of glucose; pH 7.4 (adjusted with NaOH)) using a 96-well pipette device incorporated into the FLIPR. Some wells, to which is added pure regeneration buffer, serve as positive controls (100% NHE activity). […]

Row | Structure (SMILES) | IC50 [1] [nM] | melting point [°C]
1 | Cc1ccc2c(c1)c(C(=O)N=C(N)N)cn2-c1ccnc2ccccc12.Cl [Example 6, 3-Guanidinocarbonyl-5-methyl-1-(quinol-4-yl)-1H-indole hydrochloride] | 206 | 268
2 | Cl.NC(N)=NC(=O)c1cn(-c2ccc3ncccc3c2)c2ccccc12 [Example 8, 3-Guanidinocarbonyl-1-(quinol-6-yl)-1H-indole hydrochloride] | 143 | 268
3 | Cl.NC(N)=NC(=O)c1cn(-c2nccc3ccccc23)c2ccccc12 [Example 1, 3-Guanidinocarbonyl-1-(isoquinol-1-yl)-1H-indole hydrochloride] | 14 | 262
4 | COc1ccc2c(C(=O)NC(=N)N)cn(-c3ccnc4ccccc34)c2c1 [Example 11, 3-Guanidinocarbonyl-6-methoxy-1-(quinol-4-yl)-1H-indole dihydrochloride] | 47 | 
5 | N=C(N)NC(=O)c1cn(-c2cccc3cccnc23)c2ccccc12 [Example 9, 3-Guanidinocarbonyl-1-(quinol-8-yl)-1H-indole] | 275 | 172
6 | N=C(N)NC(=O)c1cn(-c2cc3ccccc3cn2)c2ccccc12 [Example 10, 3-Guanidinocarbonyl-1-(isoquinol-3-yl)-1H-indole hydrochloride] | 1870 | 
7 | NC(N)=NC(=O)c1cn(-c2ccc3ccccc3n2)c2ccccc12 [Example 3, 3-Guanidinocarbonyl-1-(quinol-2-yl)-1H-indole hydrochloride] | 535 | 
8 | Cl.NC(N)=NC(=O)c1cn(-c2ccnc3ccccc23)c2ccccc12 [Example 2, 3-Guanidinocarbonyl-1-(quinol-4-yl)-1H-indole hydrochloride] | 4 | 270
9 | Cc1ccc2c(c1)c(C(=O)N=C(N)N)cn2-c1ccc2ccccc2n1.Cl [Example 5, 3-Guanidinocarbonyl-5-methyl-1-(quinol-2-yl)-1H-indole hydrochloride] | 4980 | 268
10 | Cl.NC(N)=NC(=O)c1cn(-c2cnc3ccccc3c2)c2ccccc12 [Example 7, 3-Guanidinocarbonyl-1-(quinol-3-yl)-1H-indole hydrochloride] | 433 | 268
11 | Cc1ccc2c(c1)c(C(=O)N=C(N)N)cn2-c1nccc2ccccc12.Cl [Example 4, 3-Guanidinocarbonyl-1-(isoquinol-1-yl)-5-methyl-1H-indole hydrochloride] | 200 | 268

Continued, values first:

Row | IC50 [1] [nM] | melting point [°C] | Structure (SMILES)
12 | 1670 |  | COc1ccc2c(c1)c(C(=O)N=C(N)N)c(C)n2-c1cnnc2ccccc12 [Example 16, N-[1-(Cinnolin-4-yl)-5-methoxy-2-meth-yl-1H-indole-3-carbonyl]-guani-dine trifluoroacetate]
13 | 1.5 |  | NC(N)=NC(=O)c1cn(-c2cnnc3ccccc23)c2ccccc12 [Example 15, N-[1-(Cinnolin-4-yl)-1H-indole-3-carbonyl]-guanidine trifluoroacetate]
14 | 2460 |  | N=C(N)NC(=O)c1cn(-c2ccnc3ccccc23)c2ccc(Cl)cc12 [Example 14, 5-Chloro-3-guanidinocarbonyl-1-(quinolin-4-yl)-1H-indole]
15 | 76 |  | N=C(N)NC(=O)c1cn(-c2ccnc3ccccc23)c2cc(F)ccc12 [Example 12, 6-Fluoro-3-guanidinocarbonyl-1-(quinol-4-yl)-1H-indole hydrochloride]
16 | 39 |  | N=C(N)NC(=O)c1cn(-c2ccnc3ccccc23)c2ccc(F)cc12 [Example 13, 5-Fluoro-3-guanidinocarbonyl-1-(quinol-4-yl)-1H-indole hydrochloride]
